Results taken from ChEMBL document CHEMBL5236635, “Structure-Based Drug Design and Synthesis of Novel N-Aryl-2,4-bithiazole-2-amine CYP1B1-Selective Inhibitors in Overcoming Taxol Resistance in A549 Cells” (J Med Chem, 2022).
Calls of active or inactive are those of the source. No cut-off for these calls is given here.

Experiments:
[1] = molecular target: T1, Cytochrome P450 1A1 (Homo sapiens, UniProt P04798); assay: Inhibition of CYP1A1 (unknown origin); type: ADME
T1 sequence (P04798 whole entry): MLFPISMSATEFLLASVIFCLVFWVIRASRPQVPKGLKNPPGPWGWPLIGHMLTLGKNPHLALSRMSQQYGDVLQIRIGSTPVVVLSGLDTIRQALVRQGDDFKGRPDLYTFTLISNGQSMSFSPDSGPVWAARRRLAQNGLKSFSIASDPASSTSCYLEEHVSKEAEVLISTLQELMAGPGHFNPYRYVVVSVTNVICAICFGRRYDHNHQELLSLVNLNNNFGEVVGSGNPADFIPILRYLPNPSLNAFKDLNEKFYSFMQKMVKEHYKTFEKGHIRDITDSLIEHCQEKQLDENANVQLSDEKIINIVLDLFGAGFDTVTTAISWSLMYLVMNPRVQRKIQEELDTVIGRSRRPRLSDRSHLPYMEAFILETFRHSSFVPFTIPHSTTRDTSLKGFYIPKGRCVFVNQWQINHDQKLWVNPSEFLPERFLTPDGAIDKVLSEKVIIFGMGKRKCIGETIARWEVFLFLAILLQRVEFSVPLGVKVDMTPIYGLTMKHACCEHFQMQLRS

[2] = molecular target: T2, Cytochrome P450 1B1 (Homo sapiens, UniProt Q16678); assay: Inhibition of CYP1B1 (unknown origin); type: ADME
T2 sequence (Q16678 whole entry): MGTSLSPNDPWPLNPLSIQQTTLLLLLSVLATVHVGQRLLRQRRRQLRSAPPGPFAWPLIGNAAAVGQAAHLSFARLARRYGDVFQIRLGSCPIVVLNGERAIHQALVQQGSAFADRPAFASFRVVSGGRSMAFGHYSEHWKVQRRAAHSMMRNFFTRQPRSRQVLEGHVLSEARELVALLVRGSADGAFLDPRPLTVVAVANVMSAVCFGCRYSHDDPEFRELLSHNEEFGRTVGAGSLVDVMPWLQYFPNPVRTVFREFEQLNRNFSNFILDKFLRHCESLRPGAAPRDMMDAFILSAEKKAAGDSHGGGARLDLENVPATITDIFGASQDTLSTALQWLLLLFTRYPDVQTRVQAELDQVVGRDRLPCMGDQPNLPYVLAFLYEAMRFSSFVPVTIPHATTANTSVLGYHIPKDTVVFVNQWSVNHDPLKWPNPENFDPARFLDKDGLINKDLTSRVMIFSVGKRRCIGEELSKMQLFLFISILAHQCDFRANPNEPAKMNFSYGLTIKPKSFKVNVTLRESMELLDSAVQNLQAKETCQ

[3] = molecular target: T3, Cytochrome P450 1A2 (Homo sapiens, UniProt P05177); assay: Inhibition of CYP1A2 (unknown origin); type: ADME
T3 sequence (P05177 whole entry): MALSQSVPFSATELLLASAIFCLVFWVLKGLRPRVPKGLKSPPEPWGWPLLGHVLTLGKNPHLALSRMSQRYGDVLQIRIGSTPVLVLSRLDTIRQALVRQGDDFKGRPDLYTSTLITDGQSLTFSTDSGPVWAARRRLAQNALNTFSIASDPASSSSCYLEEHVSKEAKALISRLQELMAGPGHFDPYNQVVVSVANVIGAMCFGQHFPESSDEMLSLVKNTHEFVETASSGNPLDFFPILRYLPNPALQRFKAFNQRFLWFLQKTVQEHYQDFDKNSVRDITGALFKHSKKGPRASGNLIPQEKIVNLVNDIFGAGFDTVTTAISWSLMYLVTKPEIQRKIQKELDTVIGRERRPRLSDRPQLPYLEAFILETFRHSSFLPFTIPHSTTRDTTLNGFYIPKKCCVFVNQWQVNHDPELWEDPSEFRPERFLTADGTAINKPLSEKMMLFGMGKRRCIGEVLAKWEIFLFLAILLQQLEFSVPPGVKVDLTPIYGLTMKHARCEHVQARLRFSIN

[4] = molecular target: T2, Cytochrome P450 1B1; assay: Inhibition of recombinant human CYP1B1 using 7-ethyl-0-resorufin as substrate incubated for 30 mins in presence of NADPH by EROD assay
[5] = molecular target: T1, Cytochrome P450 1A1; assay: Inhibition of recombinant human CYP1A1 using 7-ethyl-0-resorufin as substrate incubated for 30 mins in presence of NADPH by EROD assay
[6] = molecular target: T3, Cytochrome P450 1A2; assay: Inhibition of recombinant human CYP1A2 using 7-ethyl-0-resorufin as substrate incubated for 30 mins in presence of NADPH by EROD assay
[7] = tested on: CYP1A1 versus CYP1B1; assay: Selectivity index, ratio of IC50 for inhibition of recombinant human CYP1A1 to IC50 for inhibition of recombinant human CYP1B1; details: recombinant human CYP1A1 and recombinant human CYP1B1
[8] = tested on: A549; assay: Inhibition of DMBA induced taxol resistance in human A549 cells; type: functional, cell-based; details: dose 2.5-10 µM
[9] = molecular target: T4, CYP1B1 (Homo sapiens, UniProt Q16678); assay: Inhibition of recombinant human CYP1B1 assessed as inhibition ratio at 100 nM using 7-ethyl-0-resorufin as substrate incubated for 30 mins in presence of NADPH by EROD assay relative to control; details: recombinant human CYP1B1, probe 7-ethyl-0-resorufin
T4 sequence (Q16678 whole entry): T2 sequence (Q16678 whole entry)

[10] = tested on: CYP1A2 versus CYP1B1; assay: Selectivity index, ratio of IC50 for inhibition of recombinant human CYP1A2 to IC50 for inhibition of recombinant human CYP1B1; details: recombinant human CYP1A2 and recombinant human CYP1B1
[11] = tested on: A549; assay: Antiproliferative activity against human A549 cells assessed as reduction in cell viability at 20 nM by MTT assay; type: functional, cell-based
[12] = tested on: A549; assay: Antiproliferative activity against human A549 cells assessed as reduction in cell viability at 10 nM by MTT assay; type: functional, cell-based
[13] = tested on: A549; assay: Antiproliferative activity against human A549 cells assessed as reduction in cell viability at 20 nM in presence of DMBA by MTT assay; type: functional, cell-based
[14] = molecular target: T1, Cytochrome P450 1A1; assay: Inhibition of CYP1A1 (unknown origin) assessed as inhibition constant; type: ADME
[15] = tested on: A549/TR; assay: Reversal of taxol resistance in human A549/Taxol cells assessed as increase in Rho123 accumulation at 5 uM incubated for 20 mins by multimode plate reader analysis; type: functional, cell-based
[16] = molecular target: T2, Cytochrome P450 1B1; assay: Inhibition of human CYP1B1; type: ADME

SMILES | IC50 [4] [nM] | IC50 [5] [nM] | IC50 [6] [nM] | selectivity ratio [7] | inhibition at 0.5 h, 0.1 µM [9] [%] | selectivity ratio [10] | other results
Nc1ccc2[nH]c3c(c2c1)CCn1c-3nc2ccccc2c1=O | – | – | – | – | – | – | IC50 [1]: 2580 nM; IC50 [2]: 90 nM; IC50 [3]: 2580 nM
Clc1ccccc1-c1csc(-c2csc(Nc3ccc(N4CCOCC4)cc3)n2)n1 | 8.67 | 46.6 | > 10000 | 5.37 | – | – | inhibition [8]: Dose-Dependent Effect
COc1cc(Nc2nc(-c3nccs3)cs2)cc(OC)c1 | 0.121 | 43.9 | 89 | 363 | 90.7 | 733 | –
c1csc(-c2csc(Nc3ccc(N4CCOCC4)cc3)n2)n1 | 7.88 | 994 | 1860 | 126 | 87.7 | 236 | –
c1csc(-c2csc(Nc3ccc4c(c3)OCO4)n2)n1 | 9 | 93 | 78.5 | 10.3 | 97.6 | 8.71 | –
c1cncc(-c2csc(-c3csc(Nc4ccc(N5CCOCC5)cc4)n3)n2)c1 | 15.9 | 22.4 | 2550 | 1.4 | – | 160 | –
Clc1cc(Cl)cc(Nc2nc(-c3nc(-c4ccccc4)c(-c4ccccc4)s3)cs2)c1 | 39 | 1920 | 381 | 49.3 | – | 9.77 | –
COc1cc(Nc2nc(-c3nc(-c4ccccc4)c(-c4ccccc4)s3)cs2)cc(OC)c1 | 86.2 | 524 | > 10000 | 6.08 | – | > 116 | –
COc1cc(Nc2nc(-c3nc(-c4ccccc4)c(C)s3)cs2)cc(OC)c1 | 64.8 | 388 | 913 | 5.98 | – | 14.1 | –
c1csc(-c2csc(Nc3ccc(Cn4cncn4)cc3)n2)n1 | 9.09 | 166 | 141 | 18.2 | 92 | 15.4 | –
Clc1cc(Cl)cc(Nc2nc(-c3nccs3)cs2)c1 | 1.76 | 178 | 55.7 | 101 | 97.2 | 31.5 | –
CC(=O)O[C@H]1C(=O)[C@@]2(C)[C@H]([C@H](OC(=O)c3ccccc3)[C@]3(O)C[C@H](OC(=O)[C@H](O)[C@@H](NC(=O)c4ccccc4)c4ccccc4)C(C)=C1C3(C)C)[C@]1(OC(C)=O)CO[C@@H]1C[C@@H]2O | – | – | – | – | – | – | Activity [11]: Active; Activity [12]: Active; Activity [13]: inactive
CCC/C(C=C(C)C)=C\COc1c2occc2c(C)c2ccc(=O)oc12 | – | – | – | – | – | – | Ki [14]: 7170 nM
c1cn(Cc2ccc(Nc3nc(-c4nccs4)cs3)cc2)cn1 | 4.96 | 70.4 | 48.5 | 14.1 | 99.7 | 9.7 | –
Clc1cc(Cl)cc(Nc2nc(-c3nc(-c4ccccn4)cs3)cs2)c1 | 44.8 | 916 | 5390 | 20.4 | – | 120 | –
Clc1ccc(Nc2nc(-c3nccs3)cs2)cc1 | 6.31 | 586 | 119 | 92.9 | 90 | 18.8 | –
Clc1cc(Nc2nc(-c3nccs3)cs2)cc(Cl)c1Cl | 7.45 | 482 | 483 | 64.7 | 100 | 64.8 | –
Cc1sc(-c2csc(Nc3ccc(N4CCOCC4)cc3)n2)nc1-c1ccncc1 | 203 | 276 | 1260 | 1.36 | – | 6.2 | –
COc1ccc(-c2csc(-c3csc(Nc4cccc(F)c4)n3)n2)cc1OC | 567 | 210 | 31.6 | 0.37 | – | 0.06 | –
CCc1sc(-c2csc(Nc3ccc(N4CCOCC4)cc3)n2)nc1-c1ccncc1 | 155 | 153 | 3450 | 0.99 | – | 22.3 | –
COc1ccc(CCN(C)CCCC(C#N)(c2ccc(OC)c(OC)c2)C(C)C)cc1OC (stereo not drawn) | – | – | – | – | – | – | Activity [15]: Active
Cc1cc(O)c2c(c1)C(=O)c1cc(O)cc(O)c1C2=O [EMODIN] | – | – | – | – | – | – | IC50 [16]: 3730 nM
Fc1ccc(-c2csc(-c3csc(Nc4ccc(N5CCOCC5)cc4)n3)n2)cc1 | 1620 | 169 | 1560 | 0.1 | – | 0.97 | –
Fc1ccccc1-c1csc(-c2csc(Nc3cc(Cl)cc(Cl)c3)n2)n1 | – | – | – | – | – | – | inhibition [8]: Dose-Dependent Effect
Cc1sc(-c2csc(Nc3cccc(F)c3)n2)nc1-c1ccncc1 | 73.3 | 105 | 230 | 1.43 | – | 3.14 | –
